The values that follow come from patent US20200064333A1, “ECM COMPOSITION, TUMOR MICROENVIRONMENT PLATFORM AND METHODS THEREOF” (MITRA RXDX INDIA PRIVATE LIMITED, priority 2011, published 2020).

In assay [1] the test system is Breast Cancer patient tumor tissue. Kind of assay: "Clinical Response Predictor" explant analysis (M-score), Breast cancer. In kind it is cell-based, human. More on the design: key: 0-100 composite M-score from proprietary algorithm. An excerpt: “Clinical Response Predictor” is a patient segregation tool for matching drugs to patients and patients to the drugs in Oncology. “Clinical Response Predictor” explant model is a personalized functional assay that helps predict the response of the patient under investigation to a set of approved drugs for his/her type of cancer. This is done using fresh patient tumor tissue from solid cancers in a specially coated 96/384 well plate. The plates are coated with specific set of Extra Cellular Matix. Further, patient derived autologous ligands are added to the culture. Angiogenic factors are added to maintain tumor vasculature. In case of immunomodulator drugs, autologus immune cells are added to the culture. In the case of haematological malignancies, patient plasma is cultured in the 96/384 well format. The test is carried out in multiplicates to take into account the heterogeneous nature of cancer. “Clinical Response Predictor” results are measured by both kinetic as well as end-point assays. Cell Viability, Cell death, Cell proliferation, cell metabolism, senescence, tumor morphology are some of the parameters assessed. Each of these parameters is measured by more than one assay. For e.g.: Cell Viability is measured by WST, ATP uptake and Glucose uptake assays. Cell Proliferation and Metabolism is measured by Ki67, PCNA (proliferating nuclear cell antigen), ATP/ADP ratio and Glucose uptake. Cell death is assessed by LDH, Activated Caspase 3, Activated Caspase 8 & Nitric Oxide Synthase and TUNEL. Tumor morphology is assessed by H&E to look at the tumor cell content, size of the tumor cells, ratio of viable cells/dead cells, ratio of tumor cells/normal cells, and tumor/macrophage ratio, nuclear size and density and integrity, apoptotic bodies and mitotic figures. Results from each of the assays are expressed in numeric form and is converted using a proprietary algorithm into a single 0-100 metric called “M-score”.
Alternatively, when the tumor source is a xenograft, tumor from mice is excised and further subjected to explant analysis as described below. In another embodiment, the tumor is obtained and is implanted into the mice, thereafter it is allowed to grow, then excised and then subjected to the instant “Clinical Response Predictor” analysis. Post obtaining the, tissue sample, it is divided for obtaining various inputs from a) explant assay, b) Histology based assays like IHC (immunohistochemistry)/H&E, and c) efficacy analysis from primary tumor derived xenografts. • A) Tissue sample given for explant analysis is sliced using Leica Vibratome to generate sections of about 100-3000 μm thickness. These sections are cultured in plates coated with the cancer type specific ECM composition in quadruplicate with media containing autologous sera and also various drugs optionally, for a period of about 48-96 hours. Media with drug and enriched with serum/plasma/PBMCs/serum derived ligands is changed every 24 hours. Post this period MTT/WST analysis is done to assess percent cell viability (end point assay). The supernatant from the media culture is removed every 24 hrs and assessed for proliferation (using ATP and glucose utilization experiments) and cell death (by assessment of lactate dehydrogenase assays and caspase-3 and caspase 8 measurements) to give kinetic response trends. Results are quantified against a drug untreated control. […] The tissue sections both treated and untreated are also given for histological evaluation at the end of the culture period. • B) The tissues given for histological evaluation are assessed for apoptosis by TUNEL and activated caspase 3 assay. Also cell proliferation is assayed for standard proliferation markers like Ki67.

In assay [2] the test system is Head and Neck Cancer patient tumor tissue. Nature of the assay: "Clinical Response Predictor" explant analysis (M-score / Sensitivity Index), Head and Neck cancer. In kind it is cell-based, human. As to conditions: Right pyriform sinus. An excerpt: (§1) “Clinical Response Predictor” is a patient segregation tool for matching drugs to patients and patients to the drugs in Oncology. “Clinical Response Predictor” explant model is a personalized functional assay that helps predict the response of the patient under investigation to a set of approved drugs for his/her type of cancer. This is done using fresh patient tumor tissue from solid cancers in a specially coated 96/384 well plate. The plates are coated with specific set of Extra Cellular Matix. Further, patient derived autologous ligands are added to the culture. Angiogenic factors are added to maintain tumor vasculature. In case of immunomodulator drugs, autologus immune cells are added to the culture. […] “Clinical Response Predictor” results are measured by both kinetic as well as end-point assays. Cell Viability, Cell death, Cell proliferation, cell metabolism, senescence, tumor morphology are some of the parameters assessed. Each of these parameters is measured by more than one assay. For e.g.: Cell Viability is measured by WST, ATP uptake and Glucose uptake assays. Cell Proliferation and Metabolism is measured by Ki67, PCNA (proliferating nuclear cell antigen), ATP/ADP ratio and Glucose uptake. Cell death is assessed by LDH, Activated Caspase 3, Activated Caspase 8 & Nitric Oxide Synthase and TUNEL. […]

Assay [3] has as its system Ovary Cancer patient tumor tissue. Kind of assay: "Clinical Response Predictor" explant analysis (M-score), Ovary cancer. In kind it is cell-based, human.
From the text: as §1

Assay [4] relates to Pancreatic Cancer patient tumor tissue. Kind of assay: "Clinical Response Predictor" explant analysis (M-score), Pancreatic cancer. In kind it is cell-based, human.
From the text: as §1

The test system of assay [5] is Liver Cancer patient tumor tissue. Kind of assay: "Clinical Response Predictor" explant analysis (M-score), Liver cancer. In kind it is cell-based, human. The note with it: for M-Score: liver. An excerpt:
“Clinical Response Predictor” is a patient segregation tool for matching drugs to patients and patients to the drugs in Oncology. “Clinical Response Predictor” explant model is a personalized functional assay that helps predict the response of the patient under investigation to a set of approved drugs for his/her type of cancer. This is done using fresh patient tumor tissue from solid cancers in a specially coated 96/384 well plate. The plates are coated with specific set of Extra Cellular Matix. Further, patient derived autologous ligands are added to the culture. Angiogenic factors are added to maintain tumor vasculature. In case of immunomodulator drugs, autologus immune cells are added to the culture. In the case of haematological malignancies, patient plasma is cultured in the 96/384 well format. The test is carried out in multiplicates to take into account the heterogeneous nature of cancer. “Clinical Response Predictor” results are measured by both kinetic as well as end-point assays. Cell Viability, Cell death, Cell proliferation, cell metabolism, senescence, tumor morphology are some of the parameters assessed. Each of these parameters is measured by more than one assay. For e.g.: Cell Viability is measured by WST, ATP uptake and Glucose uptake assays. Cell Proliferation and Metabolism is measured by Ki67, PCNA (proliferating nuclear cell antigen), ATP/ADP ratio and Glucose uptake. Cell death is assessed by LDH, Activated Caspase 3, Activated Caspase 8 & Nitric Oxide Synthase and TUNEL. Tumor morphology is assessed by H&E to look at the tumor cell content, size of the tumor cells, ratio of viable cells/dead cells, ratio of tumor cells/normal cells, and tumor/macrophage ratio, nuclear size and density and integrity, apoptotic bodies and mitotic figures. Results from each of the assays are expressed in numeric form and is converted using a proprietary algorithm into a single 0-100 metric called “M-score”. […]
Alternatively, when the tumor source is a xenograft, tumor from mice is excised and further subjected to explant analysis as described below. […] The supernatant from the media culture is removed every 24 hrs and assessed for proliferation (using ATP and glucose utilization experiments) and cell death (by assessment of lactate dehydrogenase assays and caspase-3 and caspase 8 measurements) to give kinetic response trends. Results are quantified against a drug untreated control. […] The tissue sections both treated and untreated are also given for histological evaluation at the end of the culture period. • B) The tissues given for histological evaluation are assessed for apoptosis by TUNEL and activated caspase 3 assay. […]

Assay [6] has as its system Stomach Cancer patient tumor tissue. Nature of the assay: "Clinical Response Predictor" explant analysis (M-score), Stomach cancer. Format: cell-based, human.
From the text: as §1

The test system of assay [7] is Glioblastoma, Ca-Ovary, Ca-Breast, Ca-Oesophagus, Ca-Pancreas, Ca-Stomach. Nature of the assay: Clinical outcome of patients (PETCT or CT), other solid cancers. Format: in vivo, human. As to conditions: evaluated at the end of 6-8 months by PETCT or CT.
Procedure: The figure details that the tumor tissue from the patient is analyzed using explant read out, primary Human tumor xenograft readout and then subjected to a variety of genomic and proteomic profiling accompanied by histological analysis and final correlation with patient clinical data for the chemotherapy regimen. All these input parameters together generate the “Clinical Response Predictor”. The integrated preclinical prediction model is designed based on functional “Clinical Response Predictor” screening platform and M Score prompted by it. Tumor tissues are collected from clinics prior to initiation of treatment. Clinical outcome (PERCIST/RECIST) data are collected before and after completion of 3 cycles of chemotherapy (top of the FIG. 1). Concomitantly, after resection/biopsy tumors are treated with same Standards of Care [SOC] or targeted drugs as that received by patients using an “Clinical Response Predictor” driven explants platform. This leads to the extensive functional and molecular characterization (middle of the FIG. 1). […] The combined data from this platform is integrated for determining the M-score and thereafter correlated with PERCIST/RECIST obtained from patient after 3rd to 6th cycle of therapy.
The “Clinical Response Predictor” outcome (M-score) is then compared with clinical outcome.
Assay [8] deals with Glioblastoma patient tumor tissue. Nature of the assay: "Clinical Response Predictor" explant analysis (M-score), Glioblastoma. In kind it is cell-based, human. The note with it: Glioblastoma patient tumor sample, Table 3.
From the text: as §1

Assay [9] relates to Colon Cancer patient tumor tissue. Kind of assay: "Clinical Response Predictor" explant analysis (M-score), Colon / Colorectum cancer. Format: cell-based, human. An excerpt:
“Clinical Response Predictor” is a patient segregation tool for matching drugs to patients and patients to the drugs in Oncology. “Clinical Response Predictor” explant model is a personalized functional assay that helps predict the response of the patient under investigation to a set of approved drugs for his/her type of cancer. This is done using fresh patient tumor tissue from solid cancers in a specially coated 96/384 well plate. The plates are coated with specific set of Extra Cellular Matix. Further, patient derived autologous ligands are added to the culture. Angiogenic factors are added to maintain tumor vasculature. In case of immunomodulator drugs, autologus immune cells are added to the culture. In the case of haematological malignancies, patient plasma is cultured in the 96/384 well format. The test is carried out in multiplicates to take into account the heterogeneous nature of cancer. “Clinical Response Predictor” results are measured by both kinetic as well as end-point assays. Cell Viability, Cell death, Cell proliferation, cell metabolism, senescence, tumor morphology are some of the parameters assessed. Each of these parameters is measured by more than one assay. For e.g.: Cell Viability is measured by WST, ATP uptake and Glucose uptake assays. Cell Proliferation and Metabolism is measured by Ki67, PCNA (proliferating nuclear cell antigen), ATP/ADP ratio and Glucose uptake. Cell death is assessed by LDH, Activated Caspase 3, Activated Caspase 8 & Nitric Oxide Synthase and TUNEL. Tumor morphology is assessed by H&E to look at the tumor cell content, size of the tumor cells, ratio of viable cells/dead cells, ratio of tumor cells/normal cells, and tumor/macrophage ratio, nuclear size and density and integrity, apoptotic bodies and mitotic figures. […]
Alternatively, when the tumor source is a xenograft, tumor from mice is excised and further subjected to explant analysis as described below. […] Results are quantified against a drug untreated control. […]

Where [10] appears, read: Example 13.11: patient, Breast Cancer, Regional Lymph node (R) Breast, T3N1M0, metastasis and recc.
Setting [11] is: Example 13.14: patient, T4N0M0, primary.

As for `CC(C)(C#N)c1cc(Cn2cncn2)cc(C(C)(C)C#N)c1` [Anastrozole], in assay [1] (setting [10]), the M-Score is listed as 20. Still for that read-out and setting: the same measure for `CCCCCOC(=O)Nc1nc(=O)n([C@@H]2O[C@H](C)[C@@H](O)[C@H]2O)cc1F` [Capecitabine]: 26.

Turning to `N.N.[Cl][Pt][Cl]` [Cisplatin], the M-Score in assay [2] (Example 13.1: patient, T3N0M0, primary) was 64; in [2] (Example 13.2: patient, T3/4N2cM0, metastatic lymph node) it was 39. On to `CC(=O)O[C@@]12CO[C@@H]1C[C@H](O)[C@@]1(C)C(=O)[C@H](O)C3=C(C)[C@@H](OC(=O)[C@H](O)[C@@H](NC(=O)OC(C)(C)C)c4ccccc4)C[C@@](O)([C@@H](OC(=O)c4ccccc4)[C@H]21)C3(C)C` [Docetaxel], for which the M-Score was 19 in assay [3] (Example 13.10: patient, primary); 26 in [3] (Example 13.9: patient, metastasis); 26 in assay [1] (setting [10]). Take `COc1cccc2c1C(=O)c1c(O)c3c(c(O)c1C2=O)C[C@@](O)(C(=O)CO)C[C@@H]3O[C@H]1C[C@H](N)[C@H](O)[C@H](C)O1` [Doxorubicin]: the M-Score in assay [1] (setting [10]) was 17. For `C#Cc1cccc(Nc2ncnc3cc(OCCOC)c(OCCOC)cc23)c1` [Erlotinib], the M-Score in [4] (Example 13.7: patient, tumor site liver, metastasis) is 21; in assay [4] (Example 13.8: patient, pancreas, T2N0M0, primary), 14. For `Nc1ccn([C@@H]2O[C@H](CO)[C@@H](O)C2(F)F)c(=O)n1` [Gemcitabine], in assay [1] (setting [10]), the M-Score was 21.

For the molecule `CC(=O)O[C@H]1C(=O)[C@@]2(C)[C@H]([C@H](OC(=O)c3ccccc3)[C@]3(O)C[C@H](OC(=O)[C@H](O)[C@@H](NC(=O)c4ccccc4)c4ccccc4)C(C)=C1C3(C)C)[C@]1(OC(C)=O)CO[C@@H]1C[C@@H]2O` [Paclitaxel], the M-Score in [1] (setting [10]) is 11. In the case of `CNC(=O)c1cc(Oc2ccc(NC(=O)Nc3ccc(Cl)c(C(F)(F)F)c3)cc2)ccn1` [Sorafenib], the “"Clinical Response Predictor" analysis suggestion” value in [5] (Example 13.13: patient, T3NxM1, metastasis) is given as “not an optimal therapeutic option”; in [5] (setting [11]), “an optimal therapeutic option”. The M-Score in [5] (Example 13.13: patient, T3N×M1, metastasis) is 16; in [5] (setting [11]), 46. Take `CCN(CC)CCNC(=O)c1c(C)[nH]c(/C=C2\C(=O)Nc3ccc(F)cc32)c1C` [Sunitinib]: the M-Score in assay [6] (Example 13.5: patient, pylorus of stomach, metastatic lymph node recc) is recorded as 25; in [6] (Example 13.6: patient, stomach, recc) it was 09. With `Cn1nnc2c(C(N)=O)ncn2c1=O` [Temozolomide], the “Clinical readout RECIST” value in assay [7] (Glioblastoma patient) turned out to be 2. Besides, the “Sensitivity Index” value in assay [8] is given as 49. Turning to `CCC1=C[C@@H]2CN(C1)Cc1c([nH]c3ccccc13)[C@@](C(=O)OC)(c1cc3c(cc1OC)N(C)[C@H]1[C@@](O)(C(=O)OC)[C@H](OC(C)=O)[C@]4(CC)C=CCN5CC[C@]31[C@@H]54)C2` [Vinorelbine], the “Clinical readout RECIST” value in assay [7] (Ca-Breast patients) is given as 2. Also, the M-Score in [1] (setting [10]) was 19. In the case of Avastin, the M-Score is 20 in assay [9] (Example 13.15: patient, Colorectum Cancer, perineal mass, T3N0M0, recurrent); 18 in assay [1] (Example 13.18: patient, Breast Cancer with mets, Regional lymph node (Rt Br), T3N1M1, recurrent); 14 in assay [1] (Example 13.19: patient, Breast Cancer with SCLN mets, supraclaviculus lymph node, TXNXM2, metastatic). In the case of Panitumumab, the M-Score in assay [9] (Example 13.3: patient, Colon Cancer, rectosigmoid colon, Stage IV, metastasis) is listed as 19; in [9] (Example 13.4: patient, Colon Cancer, perineal mass (Ca-Rectum), T3N0M0, Recc), 27.
